In patent US6127519A, “Calcitonin derivatives” (Tsumura & Co., priority 1990, dated 2000):
Numbered stars: 1 amine (or outer) side, 2 acyl side, 3 side chain; on linkers, the order of the positions; unused ones are H or OH. Bridge positions count the residues as written; N and C are the ends. Ends that are not written are not given here. Peptide text beside a SMILES is read from it. Suc = O=C(CCC(=O)[*:2])[*:1]

Tested on: calcium concentration in the serum
Assay: Test 1: reduction of calcium level in serum after tail vein administration to rats
Assay type: in vivo, rats of the Wistar strain
Conditions: 1 ml/kg tail vein, female Wistar rats
Procedure: Six-weeks-old female rats of the Wistar strain (each group consisting of 4 rats) were used as the test animal, and the peptides of the present invention obtained in the examples given hereinafter were tested at concentrations adjusted with a 1% aqueous solution of sodium acetate (pH 4,0) to which 0.1% bovine serum albumin (BSA) was added. The solution was adjusted to a concentration of 166 μg/ml 830 ng/ml or 83 ng/ml and administered with the tail vein in an amount of 1 ml/kg. The back of the rat was fixed and blood was collected just before the administration, and at predetermined intervals after the administration, from the neck vein. The amount of blood collected each time was 0.3 ml. The sampled blood was subjected to centrifugal separation at 3500 rpm for 20 minutes to separate serum and the calcium content in the separated serum was measured by TBA-380 (supplied by Toshiba) using a Wako calcium-measuring kit (o-cpc method), and the ratio of reduction of the calcium concentration in the serum was determined.

[1] = concentration 83 ng/ml, 0 hour (just before administration)
[2] = concentration 83 ng/ml, 2 hours
[3] = concentration 83 ng/ml, 4 hours
[4] = concentration 83 ng/ml, 6 hours
[5] = concentration 830 ng/ml, 0 hour (just before administration)
[6] = concentration 830 ng/ml, 1 hour
[7] = concentration 830 ng/ml, 2 hours
[8] = concentration 830 ng/ml, 4 hours
[9] = concentration 830 ng/ml, 6 hours

| Compound | Serum calcium level as percent of pre-dose baseline (concentration 166 ng/ml, 0 hour (just before administration)) [%] | Serum calcium level as percent of pre-dose baseline (concentration 166 ng/ml, 1 hour) [%] | Serum calcium level as percent of pre-dose baseline (concentration 166 ng/ml, 2 hours) [%] | Serum calcium level as percent of pre-dose baseline (concentration 166 ng/ml, 4 hours) [%] | Serum calcium level as percent of pre-dose baseline (concentration 166 ng/ml, 6 hours) [%] | Serum calcium level as percent of pre-dose baseline [1] [%] | Serum calcium level as percent of pre-dose baseline (concentration 83 ng/ml, 1 hour) [%] | Serum calcium level as percent of pre-dose baseline [2] [%] | Serum calcium level as percent of pre-dose baseline [3] [%] | Serum calcium level as percent of pre-dose baseline [4] [%] | Serum calcium level as percent of pre-dose baseline [5] [%] | Serum calcium level as percent of pre-dose baseline [6] [%] | Serum calcium level as percent of pre-dose baseline [7] [%] | Serum calcium level as percent of pre-dose baseline [8] [%] | Serum calcium level as percent of pre-dose baseline [9] [%] |
| --- | --- | --- | --- | --- | --- | --- | --- | --- | --- | --- | --- | --- | --- | --- | --- |
| AGNLSTAMLGKLSQELHKGQTYPQTAIGVGAP-NH2 [Peptide No. 17] | 100.0 | 77.6 | 71.5 | 79.7 | 83.2 | – | – | – | – | – | – | – | – | – | – |
| CC[C@H](C)[C@H](NC(=O)[C@H](C)NC(=O)[C@@H](NC(=O)[C@H](CCC(N)=O)NC(=O)[C@@H]1CCCN1C(=O)[C@H](Cc1ccc(O)cc1)NC(=O)[C@@H](NC(=O)[C@H](CCC(N)=O)NC(=O)[C@H](CC(C)C)NC(=O)[C@H](CCCCN)NC(=O)[C@H](Cc1c[nH]cn1)NC(=O)[C@H](CC(C)C)NC(=O)[C@H](CCC(=O)O)NC(=O)[C@H](CCC(N)=O)NC(=O)[C@H](CO)NC(=O)[C@H](CC(C)C)NC(=O)[C@H](CCCCN)NC(=O)CNC(=O)[C@H](CC(C)C)NC(=O)[C@H](CC(C)C)NC(=O)[C@@H]1CCCCNC(=O)C[C@H](N)C(=O)N[C@@H](CC(N)=O)C(=O)N[C@@H](CC(C)C)C(=O)N[C@@H](CO)C(=O)N[C@@H]([C@@H](C)O)C(=O)N1)[C@@H](C)O)[C@@H](C)O)C(=O)NCC(=O)N[C@H](C(=O)NCC(=O)N[C@@H](C)C(=O)N1CCC[C@H]1C(N)=O)C(C)C [Peptide No. 24] (H-DNLSTKLLGKLSQELHKLQTYPQTAIGVGAP-NH2; lactam 1-6) | – | – | – | – | – | 100.0 | 71.1 | 70.7 | 85.6 | 80.1 | 100.0 | 69.1 | 61.9 | 54.4 | 53.0 |
| CC[C@H](C)[C@H](NC(=O)[C@H](C)NC(=O)[C@@H](NC(=O)[C@H](CCC(N)=O)NC(=O)[C@@H]1CCCN1C(=O)[C@H](Cc1ccc(O)cc1)NC(=O)[C@@H](NC(=O)[C@H](CCC(N)=O)NC(=O)[C@H](CC(C)C)NC(=O)[C@H](CCCCN)NC(=O)[C@H](Cc1c[nH]cn1)NC(=O)[C@H](CC(C)C)NC(=O)[C@H](CCC(=O)O)NC(=O)[C@H](CCC(N)=O)NC(=O)[C@H](CO)NC(=O)[C@H](CC(C)C)NC(=O)[C@H](CCCCN)NC(=O)CNC(=O)[C@H](CC(C)C)NC(=O)[C@@H](NC(=O)[C@@H]1CSSC[C@H](N)C(=O)NCC(=O)N[C@@H](CC(N)=O)C(=O)N[C@@H](CC(C)C)C(=O)N[C@@H](CO)C(=O)N[C@@H]([C@@H](C)O)C(=O)N1)C(C)C)[C@@H](C)O)[C@@H](C)O)C(=O)NCC(=O)N[C@H](C(=O)NCC(=O)N[C@@H](C)C(=O)N1CCC[C@H]1C(N)=O)C(C)C [Peptide No. 11] (H-CGNLSTCVLGKLSQELHKLQTYPQTAIGVGAP-NH2; disulfide 1-7) | – | – | – | – | – | 100.0 | 69.7 | 82.8 | 83.9 | 81.0 | 100.0 | 69.1 | 62.7 | 77.2 | 86.2 |
| CC[C@H](C)[C@H](NC(=O)[C@H](C)NC(=O)[C@@H](NC(=O)[C@H](CCC(N)=O)NC(=O)[C@@H]1CCCN1C(=O)[C@H](Cc1ccc(O)cc1)NC(=O)[C@@H](NC(=O)[C@H](Cc1c[nH]cn1)NC(=O)[C@H](Cc1ccccc1)NC(=O)[C@H](CCCCN)NC(=O)[C@H](CC(N)=O)NC(=O)[C@H](CC(C)C)NC(=O)[C@H](CC(=O)O)NC(=O)[C@H](CCC(N)=O)NC(=O)[C@H](CO)NC(=O)[C@H](CC(C)C)NC(=O)[C@H](CCCCN)NC(=O)CNC(=O)[C@H](CC(C)C)NC(=O)[C@H](CC(C)C)NC(=O)[C@@H]1CCCCNC(=O)C[C@H](N)C(=O)N[C@@H](CC(N)=O)C(=O)N[C@@H](CC(C)C)C(=O)N[C@@H](CO)C(=O)N[C@@H]([C@@H](C)O)C(=O)N1)[C@@H](C)O)[C@@H](C)O)C(=O)NCC(=O)N[C@H](C(=O)NCC(=O)N[C@@H](C)C(=O)N1CCC[C@H]1C(N)=O)C(C)C [Peptide No. 31] (H-DNLSTKLLGKLSQDLNKFHTYPQTAIGVGAP-NH2; lactam 1-6) | – | – | – | – | – | 100.0 | 79.1 | 72.7 | 77.5 | 74.3 | 100.0 | 74.3 | 65.6 | 57.3 | 49.6 |
| CC[C@H](C)[C@H](NC(=O)[C@H](C)NC(=O)[C@@H](NC(=O)[C@H](CCC(N)=O)NC(=O)[C@@H]1CCCN1C(=O)[C@H](Cc1ccc(O)cc1)NC(=O)[C@@H](NC(=O)[C@H](CCC(N)=O)NC(=O)[C@H](CCCCN)NC(=O)[C@H](Cc1c[nH]cn1)NC(=O)[C@H](CC(C)C)NC(=O)[C@H](CCC(=O)O)NC(=O)[C@H](CCC(N)=O)NC(=O)[C@H](CO)NC(=O)[C@H](CC(C)C)NC(=O)[C@H](CCCCN)NC(=O)CNC(=O)[C@H](CC(C)C)NC(=O)[C@H](CCSC)NC(=O)[C@@H]1CSSC[C@H](N)C(=O)NCC(=O)N[C@@H](CC(N)=O)C(=O)N[C@@H](CC(C)C)C(=O)N[C@@H](CO)C(=O)N[C@@H]([C@@H](C)O)C(=O)N1)[C@@H](C)O)[C@@H](C)O)C(=O)NCC(=O)N[C@H](C(=O)NCC(=O)N[C@@H](C)C(=O)N1CCC[C@H]1C(N)=O)C(C)C [Peptide No. 2] (H-CGNLSTCMLGKLSQELHKQTYPQTAIGVGAP-NH2; disulfide 1-7) | – | – | – | – | – | – | – | – | – | – | 100.0 | 86.7 | 87.7 | 92.8 | 90.1 |
| CC[C@H](C)[C@H](NC(=O)[C@H](C)NC(=O)[C@@H](NC(=O)[C@H](CCC(N)=O)NC(=O)[C@@H]1CCCN1C(=O)[C@H](Cc1ccc(O)cc1)NC(=O)[C@@H](NC(=O)[C@H](Cc1c[nH]cn1)NC(=O)[C@H](Cc1ccccc1)NC(=O)[C@H](CCCCN)NC(=O)[C@H](CC(N)=O)NC(=O)[C@H](CC(C)C)NC(=O)[C@H](CC(=O)O)NC(=O)[C@H](CCC(N)=O)NC(=O)[C@@H](NC(=O)[C@H](CC(C)C)NC(=O)[C@H](CCCCN)NC(=O)CNC(=O)[C@H](CC(C)C)NC(=O)[C@H](CC(C)C)NC(=O)[C@@H]1CCCCNC(=O)CCC(=O)N[C@@H](CC(N)=O)C(=O)N[C@@H](CC(C)C)C(=O)N[C@@H](CO)C(=O)N[C@@H]([C@@H](C)O)C(=O)N1)[C@@H](C)O)[C@@H](C)O)[C@@H](C)O)C(=O)NCC(=O)N[C@H](C(=O)NCC(=O)N[C@@H](C)C(=O)N1CCC[C@H]1C(N)=O)C(C)C [Peptide No. 33] (NLSTKLLGKLTQDLNKFHTYPQTAIGVGAP-NH2; linker N-5 via Suc) | – | – | – | – | – | 100.0 | 78.2 | 70.0 | 92.4 | 86.0 | 100.0 | 80.8 | 71.8 | 63.5 | 55.1 |
